Reference: PubChem BioAssay (NCI)
Where “and” joins values, the source holds several entries; their conditions need not be identical. Equal entries are not always repeated.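 48-hour exposure; five concentrations; linearly interpolated endpoints. GI50: concentration for 50% inhibition of growth. TGI marks complete inhibition of growth.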

Assays:
Test in all cases: NCI tumour cell line growth inhibition, 48 h
IGROV1 ovarian = test system: IGROV1 ovarian
TK-10 renal = test system: TK-10 renal
UACC-257 melanoma = test system: UACC-257 melanoma
U251 CNS = test system: U251 CNS
MALME-3M melanoma = test system: MALME-3M melanoma
SN12C renal = test system: SN12C renal
MDA-MB-435 = test system: MDA-MB-435
RPMI-8226 leukemia = test system: RPMI-8226 leukemia
MCF7 breast = test system: MCF7 breast
OVCAR-8 ovarian = test system: OVCAR-8 ovarian

SMILES	GI50 (IGROV1 ovarian)	TGI (IGROV1 ovarian)	GI50 (TK-10 renal)	TGI (TK-10 renal)	GI50 (UACC-257 melanoma)	TGI (UACC-257 melanoma)	GI50 (U251 CNS)	TGI (U251 CNS)	GI50 (MALME-3M melanoma)	TGI (MALME-3M melanoma)	GI50 (SN12C renal)	TGI (SN12C renal)	GI50 (MDA-MB-435)	TGI (MDA-MB-435)	GI50 (RPMI-8226 leukemia)	TGI (RPMI-8226 leukemia)	GI50 (MCF7 breast)	TGI (MCF7 breast)	GI50 (OVCAR-8 ovarian)	TGI (OVCAR-8 ovarian)
Cc1ccn2c(-c3csc(Nc4cccc(O)c4)n3)c(C)nc2c1	4.43 µM	29.1 µM	4.88 µM	24.9 µM	3.48 µM	19.6 µM	0.681 µM	10.3 µM	0.444 µM	25 µM	0.946 µM	27.8 µM	0.059 µM	0.281 µM	0.422 µM	5.02 µM	0.311 µM	27.3 µM	0.611 µM	44.9 µM
O=C(NCCSSCCNC(=O)/C(Cc1ccc(O)c(Br)c1)=N/O)/C(Cc1ccc(O)c(Br)c1)=N/O	–	7.15 µM	–	> 22.4 µM	–	> 34.6 µM	–	4.53 µM	–	7.44 µM	–	5.73 µM	–	> 24.9 µM	–	5.35 µM	–	8.21 µM	–	> 50 µM
NS(=O)(=O)c1cccc(-c2cc3ccncc3cc2OCc2ccccc2)c1	> 20.7 µM	> 25 µM	9.77 µM	> 25 µM	7.76 µM	> 25 µM	13 µM	> 25 µM	14.7 µM	> 25 µM	14.5 µM	> 25 µM	12.7 µM	> 25 µM	6.66 µM	> 25 µM	10.5 µM	> 25 µM	10.1 µM	> 25 µM
O=[N+]([O-])c1ccc(Oc2cccc(C(F)(F)F)c2)c([N+](=O)[O-])c1	3.02 µM	14.2 µM	3.54 µM	9.33 µM	5.46 µM	18.7 µM	3.61 µM	14.2 µM	5.66 µM	23.9 µM	3.63 µM	13.4 µM	1.67 µM	3.93 µM	2.6 µM	7.62 µM	2.81 µM	8.33 µM	2.48 µM	8.16 µM
O=C(O)CC1C(=O)OC2C3COC(=O)c4cc(O)c(O)c(O)c4-c4c(cc(O)c(O)c4O)C(=O)OC2C(OC(=O)c2cc(O)c(O)c4c2C1C(O)C(=O)O4)C(OC(=O)c1cc(O)c(O)c(O)c1)O3 (stereo not drawn)	–	> 100 µM	–	> 100 µM	–	> 100 µM	–	73 µM	–	> 100 µM	–	36.3 µM	–	83 µM	–	> 100 µM	–	40.6 µM	–	67.2 µM
O=C(CCCCCNC1=CC(=O)c2ccccc2C1=O)NCCC[Te]c1ccccc1	0.518 µM	1.89 µM	2.05 µM	6.04 µM	2.4 µM	6.33 µM	0.356 µM	1.87 µM	2.21 µM	4.21 µM	0.331 µM	1.56 µM	1.92 µM	4.67 µM	0.291 µM	1.04 µM	0.327 µM	4.66 µM	0.446 µM	–
C[C@@H](Oc1cc(-c2cnn(C3CC4(CNC4)C3)c2)cnc1N)c1c(Cl)ccc(F)c1Cl	6.64 µM	21.5 µM	10.3 µM	22.5 µM	1.79 µM	4.33 µM	5.01 µM	19.1 µM	1.53 µM	3.89 µM	2.59 µM	13.8 µM	1.16 µM	14.2 µM	3.22 µM	13 µM	0.532 µM	5 µM	10.4 µM	24.3 µM
COc1ccc(C2=NNC(c3cc(Cc4ccc(O)c(C5CC(c6ccc(OC)cc6)=NN5)c4)ccc3O)C2)cc1 (stereo not drawn)	13.7 µM	> 100 µM	19.6 µM	> 100 µM	25.6 µM	> 100 µM	5.84 µM	> 100 µM	48.9 µM	> 100 µM	8.84 µM	> 100 µM	8.52 µM	> 100 µM	9.89 µM	> 100 µM	3.3 µM	15 µM	6.36 µM	> 100 µM
O=C(N/N=C/c1ccncc1)c1ccc(C(F)(F)F)nc1Nc1cccc(C(F)(F)F)c1	1.41 µM	4.26 µM	2.52 µM	11.6 µM	3.78 µM	10.6 µM	2.47 µM	11.4 µM	2 µM	6.99 µM	2.37 µM	11.5 µM	3.66 µM	13.7 µM	0.514 µM	4.05 µM	2.27 µM	8.52 µM	2.39 µM	10.4 µM
Nc1cccc2c1CN(C1CCC(=O)NC1=O)C2=O (stereo not drawn)	> 100 µM	> 100 µM	> 100 µM	> 100 µM	> 100 µM	> 100 µM	> 100 µM	> 100 µM	> 100 µM	> 100 µM	> 100 µM	> 100 µM	> 100 µM	> 100 µM	> 100 µM	> 100 µM	> 100 µM	> 100 µM	> 100 µM	> 100 µM
Cc1cc(Br)c2nsnc2c1[N+](=O)[O-]	1.65 µM	3.62 µM	3.72 µM	12.4 µM	3.87 µM	10.9 µM	2.73 µM	8.12 µM	2.08 µM	6.55 µM	4.93 µM	17.2 µM	2.86 µM	11.1 µM	0.666 µM	9.55 µM	0.391 µM	3.02 µM	3.18 µM	12.1 µM
C=C1C(=O)O[C@H]2[C@H]1CC/C(COC(=O)c1cccc3ccccc13)=C\CC[C@@]1(C)O[C@@H]21	1.03 µM	2.79 µM	1.85 µM	3.42 µM	1.46 µM	2.83 µM	1.39 µM	2.68 µM	1.76 µM	3.66 µM	1.73 µM	3.67 µM	1.53 µM	3.35 µM	1.35 µM	4.54 µM	0.722 µM	2.84 µM	1.7 µM	5.42 µM
O=[N+]([O-])c1ccc(N/N=C/c2ccccc2O)nc1	2.7 µM	> 100 µM	3.43 µM	> 100 µM	3.13 µM	25 µM	1.69 µM	> 100 µM	5.8 µM	> 100 µM	2.17 µM	> 100 µM	3.03 µM	> 100 µM	0.86 µM	> 100 µM	0.928 µM	> 100 µM	0.407 µM	51.2 µM
O=C(O)c1ccccc1-c1ccccc1C(=O)Nc1ccc2c(c1)Cc1ccccc1-2	–	> 100 µM	–	> 100 µM	–	78.3 µM	–	> 100 µM	–	> 100 µM	–	> 100 µM	–	> 100 µM	–	70.4 µM	–	> 100 µM	–	> 100 µM
CCOC(=O)C1=C(C)NC(C)=C(C(=O)OCC)C1c1cc(Br)c(O)c(OC)c1	7.39 µM	37.2 µM	9.54 µM	39.2 µM	12.6 µM	31.4 µM	4.01 µM	15.6 µM	10.6 µM	32.7 µM	6.07 µM	22.5 µM	1.85 µM	6.2 µM	4.52 µM	41.4 µM	4.41 µM	23.9 µM	4.47 µM	38.9 µM
CCOC(=O)c1c(C(F)(F)F)n([O-])c2ccc(Cl)cc2[n+]1=O	1.85 µM	3.77 µM	1.6 µM	3.23 µM	2.19 µM	4.7 µM	1.75 µM	3.36 µM	1.73 µM	3.42 µM	2.23 µM	10.3 µM	1.68 µM	3.85 µM	2.07 µM	5.13 µM	1.98 µM	4.24 µM	2.06 µM	3.9 µM
CC[C@@]1(O)C(=O)OCc2c1cc1n(c2=O)Cc2cc3c(Cl)c4c(cc3nc2-1)OCO4	0.121 µM and 0.285 µM	> 100 µM	–	10.6 µM	0.156 µM and 0.312 µM	3.64 µM and 1.92 µM	< 0.001 µM	–	0.087 µM	31.4 µM	< 0.001 µM	–	0.0193 µM and 0.0229 µM	> 100 µM	–	4.38 µM	–	0.193 µM	< 0.001 µM	–
Cc1cc2oc(=O)c(Cl)c(Cl)c2c(C)c1Cl	–	15.8 µM	–	28.3 µM	–	30 µM	–	8.45 µM	–	23.7 µM	–	24.5 µM	–	15.3 µM	–	6 µM	–	23.5 µM	–	10.4 µM
N#Cc1ccc(N2Cc3cc(Cl)ccc3OC3=C2C(=O)N(Cc2ccc(F)cc2)C3=O)cc1	0.804 µM	2.14 µM	0.567 µM	1.1 µM	0.556 µM	1.15 µM	0.672 µM	1.68 µM	0.559 µM	1.13 µM	0.567 µM	1.19 µM	0.607 µM	1.44 µM	0.252 µM	0.814 µM	0.712 µM	3.03 µM	1.43 µM	3.12 µM
Cc1ccc(-n2nnc3c(sc4ccccc43)c2=O)cc1	4.16 µM	> 100 µM	7.47 µM	50 µM	> 100 µM	> 100 µM	3.38 µM	19 µM	8.4 µM	> 100 µM	> 100 µM	> 100 µM	14.6 µM	> 100 µM	24 µM	> 100 µM	43.7 µM	> 100 µM	6.1 µM	> 100 µM
CCCCCCCCCCCCNC(=O)[C@H]1CSC(c2cc(Br)cs2)N1 (stereo partly drawn)	1 µM	2.19 µM	0.951 µM	1.82 µM	1.24 µM	3 µM	1.05 µM	2.26 µM	3.68 µM	10.2 µM	1.11 µM	2.56 µM	0.665 µM	1.31 µM	1.38 µM	3.61 µM	2.16 µM	8.82 µM	1.58 µM	4.67 µM
O=C1c2ccccc2C(=O)c2c(NCCNCCO)ccc(NCCNCCO)c21	1.14 µM and 0.55 µM and 0.811 µM	10.3 µM and 9.84 µM	2.89 µM and 2.55 µM and 1.33 µM	24.6 µM and 22.5 µM and 8.88 µM	4.72 µM and 6.86 µM and 6.63 µM	14.2 µM and 27.9 µM and 24.7 µM	0.373 µM and 0.442 µM and 0.285 µM	5.18 µM and 6.64 µM and 2.96 µM	1.6 µM and 1.18 µM and 1.21 µM	4.97 µM and 6.88 µM and 3.85 µM	0.183 µM and 0.358 µM and 0.292 µM	4.57 µM and 12.5 µM and 9.84 µM	2.43 µM and 3.09 µM and 1.95 µM	7.22 µM and 13.2 µM and 6.06 µM	1.49 µM and 3.37 µM and 1.8 µM	12.2 µM and 33 µM and 10.9 µM	0.0479 µM and 0.0696 µM and 0.069 µM	0.948 µM and 2.39 µM and 4.99 µM	0.349 µM and 0.718 µM and 0.821 µM	6.5 µM and 6.81 µM and 6.08 µM
COc1cccc(C(C#N)NC23CC4CC(CC(C4)C2)C3)c1 (stereo not drawn)	–	> 100 µM	–	> 100 µM	–	> 100 µM	–	> 100 µM	–	> 100 µM	–	> 100 µM	–	> 100 µM	–	> 100 µM	–	> 100 µM	–	> 100 µM
COc1ccc(Oc2nc(Nc3ccc(N4CCOCC4)cc3)ncc2NC(=O)Nc2cc(OC)cc(OC)c2)cc1	4.45 µM	13.9 µM	6.58 µM	> 33.3 µM	5.47 µM	23.8 µM	1.38 µM	5.88 µM	0.969 µM	3.27 µM	1.17 µM	4.5 µM	2.33 µM	17.1 µM	5.21 µM	32.6 µM	4.97 µM	> 33.3 µM	4.65 µM	> 33.3 µM
CCc1ccc(Oc2nccc(-c3c(-c4ccc(F)cc4)ncn3C3CCNCC3)n2)cc1	4.71 µM	12.1 µM	4.24 µM	7.93 µM	4.34 µM	8.04 µM	4.06 µM	9.16 µM	4.62 µM	9.13 µM	5.19 µM	13.9 µM	4.47 µM	8.77 µM	5.77 µM	14.9 µM	4.39 µM	8.37 µM	4.7 µM	10.6 µM
O=C1NC(=O)C(N2CCc3ccccc32)=C1c1ccc(Cl)cc1	> 25 µM	> 25 µM	> 25 µM	> 25 µM	> 25 µM	> 25 µM	> 25 µM	> 25 µM	> 25 µM	> 25 µM	> 25 µM	> 25 µM	> 25 µM	> 25 µM	> 25 µM	> 25 µM	> 25 µM	> 25 µM	> 25 µM	> 25 µM
